From BindingDB's records for doi:10.1016/j.ejmech.2019.05.027 (Central University of Punjab, 2019)
Residues, ends and D or L forms follow the SMILES beside them.

Key:
[1] = target: T1, ATP-dependent translocase ABCB1 (Homo sapiens, UniProt P08183); experiment: Inhibition of P-gp in HEK293/ABCB1 cells assessed as potentiation of doxorubicin-induced cytotoxicity by measuring doxorubicin IC50 at 1 uM incubated for 48 hrs by MTT assay (Rvb = 8.08 uM)
[2] = Inhibition of P-gp in HEK293/ABCB1 cells assessed as potentiation of cisplatin-induced cytotoxicity by measuring cisplatin IC50 at 2 uM incubated for 48 hrs by MTT assay (Rvb = 8.08 uM)
[3] = target: T1, ATP-dependent translocase ABCB1; experiment: Inhibition of P-gp in human NCI-H460/R cells assessed as potentiation of doxorubicin-induced cytotoxicity by measuring reduction in doxorubicin IC50 at 0.1 to 2.5 uM incubated for 72 hrs by MTT assay
[4] = target: T1, ATP-dependent translocase ABCB1; experiment: Inhibition of P-gp in human Caco2 cells assessed as potentiation of doxorubicin-induced cytotoxicity by measuring reduction in doxorubicin IC50 at 2.2 uM incubated for 24 hrs by MTT assay

T1 sequence (P08183 whole entry): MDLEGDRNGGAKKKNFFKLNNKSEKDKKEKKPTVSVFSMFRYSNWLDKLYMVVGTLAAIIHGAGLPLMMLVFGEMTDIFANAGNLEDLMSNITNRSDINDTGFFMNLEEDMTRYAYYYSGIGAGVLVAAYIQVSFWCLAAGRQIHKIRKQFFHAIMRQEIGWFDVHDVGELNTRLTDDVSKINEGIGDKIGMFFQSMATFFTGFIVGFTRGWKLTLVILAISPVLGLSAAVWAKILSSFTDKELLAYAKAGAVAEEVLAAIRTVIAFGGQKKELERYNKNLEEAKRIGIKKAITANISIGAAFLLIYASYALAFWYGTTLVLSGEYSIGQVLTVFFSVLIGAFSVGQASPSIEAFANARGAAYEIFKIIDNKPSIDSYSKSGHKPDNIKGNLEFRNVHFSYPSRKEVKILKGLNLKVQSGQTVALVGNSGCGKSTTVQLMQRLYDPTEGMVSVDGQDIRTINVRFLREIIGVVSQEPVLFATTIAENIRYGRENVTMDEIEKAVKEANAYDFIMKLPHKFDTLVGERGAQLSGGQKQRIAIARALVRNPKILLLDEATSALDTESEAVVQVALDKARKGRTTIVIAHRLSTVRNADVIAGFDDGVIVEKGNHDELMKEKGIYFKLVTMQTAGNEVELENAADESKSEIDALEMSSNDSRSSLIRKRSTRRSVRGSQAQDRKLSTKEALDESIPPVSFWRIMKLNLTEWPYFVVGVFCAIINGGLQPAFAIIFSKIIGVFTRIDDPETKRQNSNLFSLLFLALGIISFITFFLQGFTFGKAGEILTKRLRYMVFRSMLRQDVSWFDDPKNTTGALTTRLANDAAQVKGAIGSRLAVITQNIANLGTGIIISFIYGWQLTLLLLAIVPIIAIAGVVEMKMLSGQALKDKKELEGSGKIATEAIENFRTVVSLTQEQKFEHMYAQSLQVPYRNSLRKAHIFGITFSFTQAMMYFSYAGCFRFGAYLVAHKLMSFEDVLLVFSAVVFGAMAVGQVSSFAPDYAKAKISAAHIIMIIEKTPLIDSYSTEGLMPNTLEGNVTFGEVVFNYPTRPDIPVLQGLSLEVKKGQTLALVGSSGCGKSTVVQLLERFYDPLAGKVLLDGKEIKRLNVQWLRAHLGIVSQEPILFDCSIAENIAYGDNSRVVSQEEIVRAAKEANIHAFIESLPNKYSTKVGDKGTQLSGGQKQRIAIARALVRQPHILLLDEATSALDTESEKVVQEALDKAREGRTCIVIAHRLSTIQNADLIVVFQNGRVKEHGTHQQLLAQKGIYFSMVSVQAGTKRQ

CCOc1cc(O)cc2c1C[C@@H](OC(=O)c1cc(OCC)c(OCC)c(OCC)c1)[C@@H](c1cc(O)c(OCC)c(OCC)c1)O2
IC50 [1]: 620 nM
IC50 [2]: 920 nM

CC(C)[C@H](NC(=O)[C@H](CO)NC(=O)[C@@H](N)Cc1ccc(O)cc1)C(=O)O (H-Tyr-Ser-Val-OH)
IC50 [3]: 700 nM

CC1(C)O[C@H]2CC(=O)OC[C@]23[C@H]2CC[C@@]4(C)[C@H](c5ccoc5)OC(=O)[C@H]5O[C@]54[C@]2(C)C(=O)C[C@@H]13 [Limonin]
IC50 [4]: 19100 nM
